Measurements reported in patent US8916599B2, “1H-benz imidazole-5-carboxamides as anti-inflammatory agents” (Orexo AB, priority 2008, dated 2014).

Target: T1, recombinant human mPGES-1 (Homo sapiens, UniProt O14684)
T1 construct: made in house; host or cells: Rosetta E. coli (microsomal/membrane fraction)
T1 sequence (O14684 1-152): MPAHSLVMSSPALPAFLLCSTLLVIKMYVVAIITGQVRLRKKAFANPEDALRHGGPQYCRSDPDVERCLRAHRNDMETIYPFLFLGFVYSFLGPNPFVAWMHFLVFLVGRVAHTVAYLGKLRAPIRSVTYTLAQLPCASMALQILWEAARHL
Assay: mPGES-1 inhibition test (microsomes, PGH2 substrate, HTRF detection of PGE2)
Type: biochemical
Conditions: inhibition of mPGES-1 at 10 μM
Procedure, shortened: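 PGE2 formed from PGH2 in one minute by E. coli-expressed microsomal enzyme (pH 7.4, 2.5 mM GSH) was measured by competitive HTRF against a synthetic PGE2 standard curve. Compounds were preincubated 25 min at room temperature.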

Point of comparison: Cn1c(Nc2c(Cl)cc(F)cc2Cl)nc2cc(C(=O)NC3CCC(C)(C)CC3)ccc21 [Example 420, 2-(2,6-Dichloro-4-fluorophenylamino)-N-(4,4-dimethylcyclohexyl)-1-methyl-1H-benzimidazole-5-carboxamide], inhibition at 10 µM 100%. Against it:
- Cn1c(Nc2c(F)cccc2Cl)nc2cc(C(=O)NCCCC3CC3)c(F)cc21 [Example 390, 2-(2-Chloro-6-fluorophenylamino)-N-(3-cyclopropylpropyl)-6-fluoro-1-methyl-1H-benzimidazole-5-carboxamide] — the same, 100%
- CCCCCNC(=O)c1cc2nc(Nc3c(Cl)cccc3Cl)n(C)c2cc1F [Example 391, 2-(2,6-Dichlorophenylamino)-6-fluoro-1-methyl-N-pentyl-1H-benzimidazole-5-carboxamide] — the same, 100%
- CCC1CCC(NC(=O)c2cc3nc(Nc4c(F)cccc4Cl)n(C)c3cc2F)C1 (stereo not shown) [Example 392, 2-(2-Chloro-6-fluorophenylamino)-N-(3-ethylcyclopentyl)-6-fluoro-1-methyl-1H-benzimidazole-5-carboxamide] — the same, 100%
- O=C(Nc1ccc(Br)cc1)c1cc2[nH]c(Nc3c(Cl)cccc3Cl)nc2c(F)c1F [Example 395, N-(4-Bromophenyl)-2-(2,6-dichlorophenylamino)-4,5-difluoro-1H-benzimidazole-6-carboxamide] — the same, 100%
- Cn1c(Nc2c(Cl)cccc2Cl)nc2cc(C(=O)NCCC3CCC3)c(F)cc21 [Example 397, N-(2-Cyclobutylethyl)-2-(2,6-dichlorophenylamino)-6-fluoro-1-methyl-1H-benzimidazole-5-carboxamide] — lower, 99%
- Cn1c(Nc2c(Cl)cccc2Cl)nc2cc(C(=O)NCCCC3CC3)c(F)cc21 [Example 398, N-(3-Cyclopropylpropyl)-2-(2,6-dichlorophenylamino)-6-fluoro-1-methyl-1H-benzimidazole-5-carboxamide] — lower, 96%
- O=C(NC1CCC2(CC1)CC2)c1cc2nc(Nc3c(F)cccc3Cl)[nH]c2cc1F [Example 399, 2-(2-Chloro-6-fluorophenylamino)-6-fluoro-N-(spiro[2.5]octan-6-yl)-1H-benzimidazole-5-carboxamide] — lower, 99%
- Cc1cc(Cl)cc(Cl)c1Nc1nc2cc(C(=O)Nc3ccc(Br)cc3)ccc2n1C [Example 402, N-(4-Bromophenyl)-2-(2,4-dichloro-6-methylphenylamino)-1-methyl-1H-benzimidazole-5-carboxamide] — the same, 100%
- Cn1c(Nc2c(F)cccc2Cl)nc2cc(C(=O)NC3CCCC(C)(C)C3)c(F)cc21 (stereo not shown) [Example 404, 2-(2-Chloro-6-fluorophenylamino)-N-(3,3-dimethylcyclohexyl)-6-fluoro-1-methyl-1H-benzimidazole-5-carboxamide] — the same, 100%
- Cn1c(Nc2c(Cl)cccc2Cl)nc2cc(C(=O)Nc3cccc(Cl)c3)cc(Br)c21 [Example 405, 7-Bromo-N-(3-chlorophenyl)-2-(2,6-dichlorophenylamino)-1-methyl-1H-benzimidazole-5-carboxamide] — the same, 100%
- COc1cc2[nH]c(Nc3c(Cl)cccc3Cl)nc2cc1C(=O)NCc1ncccc1C1CC1 [Example 407, N-((3-Cyclopropylpyridin-2-yl)-methyl)-2-(2,6-dichlorophenylamino)-6-methoxy-1H-benzimidazole-5-carboxamide] — the same, 100%
- CC(C)CCCNC(=O)c1cc2nc(Nc3c(Cl)cccc3Cl)n(C)c2cc1F [Example 408, 2-(2,6-Dichlorophenylamino)-6-fluoro-1-methyl-N-(4-methylpentyl)-1H-benzimidazole-5-carboxamide] — the same, 100%
- CCC1CCC(NC(=O)c2cc3nc(Nc4c(Cl)cccc4Cl)n(C)c3cc2F)C1 (stereo not shown) [Example 412, 2-(2,6-Dichlorophenylamino)-N-(3-ethylcyclopentyl)-6-fluoro-1-methyl-1H-benzimidazole-5-carboxamide] — the same, 100%
- Cn1c(Nc2c(Cl)cccc2Cl)nc2cc(C(=O)NC3CCC4(CC4)C3)c(F)cc21 (stereo not shown) [Example 415, 2-(2,6-Dichlorophenylamino)-6-fluoro-1-methyl-N-(spiro[2.4]heptan-5-yl)-1H-benzimidazole-5-carboxamide] — the same, 100%
- CCCC[C@@H](C)NC(=O)c1cc2nc(Nc3c(Cl)cccc3Cl)n(C)c2cc1F [Example 416, (R)-2-(2,6-Dichlorophenylamino)-6-fluoro-N-(hexan-2-yl)-1-methyl-1H-benzimidazole-5-carboxamide] — the same, 100%
- Cc1c[n+]([O-])c(NC(=O)c2ccc3nc(Nc4c(Cl)cccc4Cl)[nH]c3c2)cc1Cl [Example 418, 4-Chloro-2-(2-(2,6-dichlorophenylamino)-1H-benzimidazole-6-carboxamido)-5-methylpyridine 1-oxide] — the same, 100%
- Cn1c(Nc2c(Cl)cccc2Cl)nc2cc(C(=O)NC3CCC4(CC3)CC4)c(F)cc21 [Example 419, 2-(2,6-Dichlorophenylamino)-6-fluoro-1-methyl-N-(spiro[2.5]octan-6-yl)-1H-benzimidazole-5-carboxamide] — the same, 100%
- Cc1cnc(NC(=O)c2cc3nc(Nc4c(Cl)cccc4Cl)n(C)c3cc2F)cc1C [Example 421, 2-(2,6-Dichlorophenylamino)-N-(4,5-dimethylpyridin-2-yl)-6-fluoro-1-methyl-1H-benzimidazole-5-carboxamide] — lower, 99%
- Cn1c(Nc2c(Cl)cccc2Cl)nc2cc(C(=O)NCc3ncccc3C3CC3)c(F)cc21 [Example 422, N-((3-Cyclopropylpyridin-2-yl)methyl)-2-(2,6-dichlorophenylamino)-6-fluoro-1-methyl-1H-benzimidazole-5-carboxamide] — the same, 100%
- Cn1c(Nc2cc(C(F)(F)F)ccc2Cl)nc2cc(C(=O)Nc3ccc(Br)cc3)ccc21 [Example 423, N-(4-Bromophenyl)-2-(2-chloro-5-trifluoromethyl-phenylamino)-1-methyl-1H-benzimidazole-5-carboxamide] — the same, 100%
- CCCCOc1cccc(NC(=O)c2ccc3[nH]c(Nc4c(Cl)cccc4Cl)nc3c2)n1 [Example 426, N-(6-Butoxypyridin-2-yl)-2-(2,6-dichlorophenylamino)-1H-benzimidazole-5-carboxamide] — lower, 98%
- CC(C)CCNC(=O)c1cc2nc(Nc3c(Cl)cccc3Cl)n(C)c2cc1F [Example 428, 2-(2,6-Dichlorophenylamino)-6-fluoro-N-isopentyl-1-methyl-1H-benzimidazole-5-carboxamide] — the same, 100%
- Cn1c(Nc2c(F)cccc2Cl)nc2cc(C(=O)NC3CCC(C)(C)CC3)c(F)cc21 [Example 430, 2-(2-Chloro-6-fluorophenylamino)-N-(4,4-dimethylcyclohexyl)-6-fluoro-1-methyl-1H-benzimidazole-5-carboxamide] — the same, 100%
- Cn1c(Nc2c(Cl)cc(F)cc2Cl)nc2cc(C(=O)N[C@H]3CC[C@H](C(F)(F)F)CC3)ccc21 [Example 432, 2-(2,6-Dichloro-4-fluorophenylamino)-1-methyl-N-((1R,4R)-4-trifluoromethyl-cyclohexyl)-1H-benzimidazole-5-carboxamide] — the same, 100%
- Cn1c(Nc2ccc(Cl)cc2C(F)(F)F)nc2cc(C(=O)Nc3ccc(Br)cc3)ccc21 [Example 433, N-(4-Bromophenyl)-2-(4-chloro-2-trifluoromethyl-phenylamino)-1-methyl-1H-benzimidazole-5-carboxamide] — lower, 99%
- Cn1c(Nc2c(Cl)cccc2Cl)nc2cc(C(=O)NC3CCC4(CC4)C3)ccc21 (stereo not shown) [Example 436, 2-(2,6-Dichlorophenylamino)-1-methyl-N-(spiro[2.4]heptan-5-yl)-1H-benzimidazole-5-carboxamide] — lower, 99%
- CCC1CCC(NC(=O)c2cc3nc(Nc4c(Cl)cccc4Cl)n(C)c3cc2F)CC1 (stereo not shown) [Example 437, 2-(2,6-Dichlorophenylamino)-N-(4-ethylcyclohexyl)-6-fluoro-1-methyl-1H-benzimidazole-5-carboxamide] — lower, 97%
- Cn1c(Nc2c(F)cccc2Cl)nc2cc(C(=O)NC3CCC4(CC3)CC4)ccc21 [Example 441, 2-(2-Chloro-6-fluorophenylamino)-1-methyl-N-(spiro[2.5]octan-6-yl)-1H-benzimidazole-5-carboxamide] — lower, 97%
- C[C@@H]1CCC[C@@H](NC(=O)c2cc3nc(Nc4c(Cl)cccc4Cl)n(C)c3cc2F)C1 [Example 442, 2-(2,6-Dichlorophenylamino)-6-fluoro-1-methyl-N-((1R,3R)-3-methylcyclohexyl)-1H-benzimidazole-5-carboxamide] — lower, 99%
- CCCC[C@H](C)NC(=O)c1cc2nc(Nc3c(Cl)cccc3Cl)[nH]c2cc1F [Example 443, (S)-2-(2,6-Dichlorophenylamino)-6-fluoro-N-(hexan-2-yl)-1H-benzimidazole-5-carboxamide] — the same, 100%
- Cn1c(Nc2c(Cl)cccc2Cl)nc2cc(C(=O)NC3CC(C)(C)C3)c(F)cc21 [Example 447, 2-(2,6-Dichlorophenylamino)-N-(3,3-dimethylcyclobutyl)-6-fluoro-1-methyl-1H-benzimidazole-5-carboxamide] — lower, 99%
- CCCC[C@H](C)NC(=O)c1cc2nc(Nc3c(Cl)cccc3Cl)n(C)c2cc1F [Example 450, (S)-2-(2,6-Dichlorophenylamino)-6-fluoro-N-(hexan-2-yl)-1-methyl-1H-benzimidazole-5-carboxamide] — lower, 99%
- Cn1c(Nc2c(Cl)cccc2Cl)nc2cc(C(=O)NCc3ncccc3Cl)c(F)cc21 [Example 452, N-((3-Chloropyridin-2-yl)methyl)-2-(2,6-dichlorophenylamino)-6-fluoro-1-methyl-1H-benzimidazole-5-carboxamide] — lower, 93%
